Data published in patent US8299048B2, “Hexahydrocyclopentyl[f]indazole sulfonamides and derivatives thereof as selective glucocorticoid receptor modulators” (Merck Sharp & Dohme Corp., priority 2008, dated 2012).

Legend:
human GR [1] = biological target: T1, human GR (Homo sapiens, UniProt P04150); assay: Transrepression Assay (GITAR), TNFα-β-lactamase reporter in U937 cells; format: cell-based; set-up: U937 cells contain an endogenous glucocorticoid receptor (GR); endogenous in cells; host or cells: U937 cells stably transfected with the TNF-alpha promoter/beta-lactamase reporter; settings: for GITAR > GRAMM % SEP: GITAR Emax minus GRAMMER Emax; for EC50: U937 cells, inflection point, read-out: Transrepression U937 Cells GITAR IP
T1 sequence (P04150 1-777): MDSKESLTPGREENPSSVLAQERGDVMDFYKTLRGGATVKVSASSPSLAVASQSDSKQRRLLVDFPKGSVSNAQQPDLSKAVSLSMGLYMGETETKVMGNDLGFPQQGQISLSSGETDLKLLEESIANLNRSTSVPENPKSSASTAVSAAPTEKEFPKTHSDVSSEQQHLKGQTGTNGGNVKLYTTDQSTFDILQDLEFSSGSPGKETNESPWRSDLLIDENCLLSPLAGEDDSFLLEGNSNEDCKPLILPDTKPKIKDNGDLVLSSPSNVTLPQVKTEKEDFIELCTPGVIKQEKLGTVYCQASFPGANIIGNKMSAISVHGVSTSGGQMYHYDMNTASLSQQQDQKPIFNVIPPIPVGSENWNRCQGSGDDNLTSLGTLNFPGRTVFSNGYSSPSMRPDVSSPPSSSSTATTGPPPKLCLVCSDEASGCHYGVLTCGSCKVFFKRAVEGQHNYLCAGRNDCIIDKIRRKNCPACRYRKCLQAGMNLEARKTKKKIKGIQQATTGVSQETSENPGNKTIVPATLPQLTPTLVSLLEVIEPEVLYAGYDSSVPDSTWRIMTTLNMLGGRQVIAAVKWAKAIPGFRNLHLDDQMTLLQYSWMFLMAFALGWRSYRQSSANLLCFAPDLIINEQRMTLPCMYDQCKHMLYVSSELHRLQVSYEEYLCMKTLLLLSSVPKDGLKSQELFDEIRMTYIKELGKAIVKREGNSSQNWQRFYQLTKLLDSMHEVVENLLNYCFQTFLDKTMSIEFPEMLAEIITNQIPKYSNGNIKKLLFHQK
Procedure, shortened: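 U937 cells with endogenous GR, stably carrying TNFα promoter–β-lactamase, preincubated with compound 30–45 min at 37° C, then stimulated with PMA 5 ng/ml and LPS 100 ng/ml (final) ~18 hr. Read-out via CCF2-AM loading; repression by 100 nM dexamethasone set as 100%.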

human GR [2] = biological target: T1, human GR; assay: Trans-Activation Modulation of Glucocorticoid Receptor (GRAMMER), MMTV-LUC reporter, agonist mode; format: cell-based; set-up: endogenous in cells; settings: for Emax: A549, A549 cells, maximum activity, read-out: Transactivation A549 Cells GRAMMER Emax; for EC50: A549 cells, inflection point, read-out: Transactivation A549 Cells GRAMMER IP
Procedure, shortened: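 Readout is luciferase from a modified MMTV LTR promoter after 24 h compound exposure alongside 10 nM dexamethasone (100% activity reference), DMSO ≤1%.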

[3] = U-937, U937 cells, maximum activity, read-out: Transrepression U937 Cells GITAR Emax
[4] = U-937, activity repressed by 100 nM dexamethasone alone set as 100%, read-out: maximal activity in the transrepression (GITAR) assay

Structure (SMILES)	GITAR > GRAMM % SEP (human GR [1]) [%]	EC50 (human GR [1]) [µM]	Emax (human GR [1]; [3]) [%]	Emax (human GR [1]; [4]) [%]	Emax (human GR [2]) [%]	EC50 (human GR [2]) [µM]
C[C@]12Cc3cnn(-c4ccc(F)cc4)c3C=C1CC[C@@H]2CN(CCc1ccccc1F)S(=O)(=O)Cc1ccccc1C(F)(F)F [Example 108, N-[2-(2-fluorophenyl)ethyl]-N-{[(4αR,5S)-1-(4-fluorophenyl)-4α-methyl-1,4,4α,5,6,7-hexahydrocyclopenta[f]indazol-5-yl]methyl}-1-[2-(trifluoromethyl)phenyl]methanesulfonamide]	24.6	0.185	70.5	> 5	46	0.521
COc1cccc(CCN(C[C@H]2CCC3=Cc4c(cnn4-c4ccc(F)cc4)C[C@@]32C)S(=O)(=O)CC(F)(F)F)c1 [Example 126, 2,2,2-trifluoro-N-{[(4αR,5S)-1-(4-fluorophenyl)-4α-methyl-1,4,4α,5,6,7-hexahydrocyclopenta[f]indazol-5-yl]methyl}-N-[2-(3-methoxyphenyl)ethyl]ethanesulfonamide]	11.7	0.233	90	> 5	78.2	0.227
C[C@]12Cc3cnn(-c4ccc(F)cc4)c3C=C1CC[C@@H]2CN(CCc1ccccc1F)S(=O)(=O)Cc1ccc(Cl)cc1Cl [Example 105, 1-(2,4-dichlorophenyl)-N-[2-(2-fluorophenyl)ethyl]-N-{[(4αR,5S)-1-(4-fluorophenyl)-4α-methyl-1,4,4α,5,6,7-hexahydrocyclopenta[f]indazol-5-yl]methyl}methanesulfonamide]	3.3	0.109	88.8	> 5	85.5	0.193
CC(=O)Nc1ccc(S(=O)(=O)N(CC2CC2)C[C@H]2CCC3=Cc4c(cnn4-c4ccc(F)cc4)C[C@@]32C)cc1 [Example 6, N-{4-[((cyclopropylmethyl){[(4αR,5S)-1-(4-fluorophenyl)-4α-methyl-1,4,4α,5,6,7-hexahydrocyclopenta[f]indazol-5-yl]methyl}amino)sulfonyl]phenyl}acetamide]	36.0	1.01	49	> 5	13	0.402
Cc1noc(C)c1S(=O)(=O)N(CC1CC1)C[C@H]1CCC2=Cc3c(cnn3-c3ccc(F)cc3)C[C@@]21C [Example 11, N-(cyclopropylmethyl)-N-{[(4αR,5S)-1-(4-fluorophenyl)-4α-methyl-1,4,4α,5,6,7-hexahydrocyclopenta[f]indazol-5-yl]methyl}-3,5-dimethylisoxazole-4-sulfonamide]	23.1	0.206	89.1	> 5	66	0.235
CCCCCCCCS(=O)(=O)N(CCc1ccccc1F)C[C@H]1CCC2=Cc3c(cnn3-c3ccc(F)cc3)C[C@@]21C [Example 104, N-[2-(2-fluorophenyl)ethyl]-N-{[(4αR,5S)-1-(4-fluorophenyl)-4α-methyl-1,4,4α,5,6,7-hexahydrocyclopenta[f]indazol-5-yl]methyl}octane-1-sulfonamide]	1.0	0.153	10.2	> 5	9.2	0.258
CCCCCc1ccc(S(=O)(=O)N(CC2CC2)C[C@H]2CCC3=Cc4c(cnn4-c4ccc(F)cc4)C[C@@]32C)cc1 [Example 9, N-(cyclopropylmethyl)-N-{[(4αR,5S)-1-(4-fluorophenyl)-4α-methyl-1,4,4α,5,6,7-hexahydrocyclopenta[f]indazol-5-yl]methyl}-4-pentylbenzenesulfonamide]	15.4	0.959	28.1	> 5	12.7	1.13
C[C@H](O)CN(C[C@H]1CCC2=Cc3c(cnn3-c3ccc(F)cc3)C[C@@]21C)S(=O)(=O)CC(F)(F)F [Example 113]	8.7	0.059	94	> 5	85.4	0.0547

Now from value to compound:

GITAR > GRAMM % SEP (human GR [1]) [%]	EC50 (human GR [1]) [µM]	Emax (human GR [1]; [3]) [%]	Emax (human GR [1]; [4]) [%]	Emax (human GR [2]) [%]	EC50 (human GR [2]) [µM]	Structure (SMILES)
3.7	0.202	90.8	> 5	87.1	0.323	COC(=O)c1ccccc1CS(=O)(=O)N(CC(O)C(F)(F)F)C[C@H]1CCC2=Cc3c(cnn3-c3ccc(F)cc3)C[C@@]21C (stereo partly drawn) [Example 162, methyl 2-({[{[(4αR,5S)-1-(4-fluorophenyl)-4α-methyl-1,4,4α,5,6,7-hexahydrocyclopenta[f]indazol-5-yl]methyl}(3,3,3-trifluoro-2-hydroxypropyl)amino]sulfonyl}methyl)benzoate]
32.2	1.09	61.3	> 5	29	0.989	CCCS(=O)(=O)N(CC(O)C(F)F)C[C@H]1CCC2=Cc3c(cnn3-c3ccc(F)cc3)C[C@@]21C (stereo partly drawn) [Example 155, N-(3,3-difluoro-2-hydroxypropyl)-N-{[(4αR,5S)-1-(4-fluorophenyl)-4α-methyl-1,4,4α,5,6,7-hexahydrocyclopenta[f]indazol-5-yl]methyl}propane-1-sulfonamide]
22.5	0.0826	95.9	> 5	73.4	0.0675	C[C@]12Cc3cnn(-c4ccc(F)cc4)c3C=C1CC[C@@H]2CN(CC(O)C(F)F)S(=O)(=O)CC(F)(F)F (stereo partly drawn) [Example 133, N-(3,3-difluoro-2-hydroxypropyl)-2,2,2-trifluoro-N-{[(4αR,5S)-1-(4-fluorophenyl)-4α-methyl-1,4,4α,5,6,7-hexahydrocyclopenta[f]indazol-5-yl]methyl}ethanesulfonamide]
19.2	0.258	87.9	> 5	68.8	0.127	C[C@]12Cc3cnn(-c4ccc(F)cc4)c3C=C1CC[C@@H]2CN(CC1(O)CC1)S(=O)(=O)CC(F)(F)F [Example 135, 2,2,2-trifluoro-N-{[(4αR,5S)-1-(4-fluorophenyl)-4α-methyl-1,4,4α,5,6,7-hexahydrocyclopenta[f]indazol-5-yl]methyl}-N-[(1-hydroxycyclopropyl)methyl]ethanesulfonamide]
12.5	0.159	87.4	> 5	74.9	0.15	C[C@]12Cc3cnn(-c4ccc(F)cc4)c3C=C1CC[C@@H]2CN(CC(O)C(F)(F)F)S(=O)(=O)Cc1ccccc1C(N)=O (stereo partly drawn) [Example 167, 2-({[{[(4αR,5S)-1-(4-fluorophenyl)-4α-methyl-1,4,4α,5,6,7-hexahydrocyclopenta[f]indazol-5-yl]methyl}(3,3,3-trifluoro-2-hydroxypropyl)amino]sulfonyl}methyl) benzamide]
4.7	0.243	93.8	> 5	89.2	0.216	C[C@]12Cc3cnn(-c4ccc(F)cc4)c3C=C1CC[C@@H]2CN(CC(OS(=O)(=O)CC(F)(F)F)C(F)F)S(=O)(=O)CC(F)(F)F (stereo partly drawn) [Example 134, 2,2-difluoro-1-({{[(4αR,5S)-1-(4-fluorophenyl)-4α-methyl-1,4,4α,5,6,7-hexahydrocyclopenta[f]indazol-5-yl]methyl}[(2,2,2-trifluoroethyl)sulfonyl]amino}methyl)ethyl 2,2,2-trifluoroethanesulfonate]
13.6	0.229	79.7	> 5	66.1	0.369	C[C@]12Cc3cnn(-c4ccc(F)cc4)c3C=C1CC[C@@H]2CN(CCc1ccc(O)cc1)S(=O)(=O)CC(F)(F)F [Example 130, 2,2,2-trifluoro-N-{[(4αR,5S)-1-(4-fluorophenyl)-4α-methyl-1,4,4α,5,6,7-hexahydrocyclopenta[f]indazol-5-yl]methyl}-N-[2-(4-hydroxyphenyl)ethyl]ethanesulfonamide]
